Measured values published in EP4417616A1, “LXR ANTAGONISTS” (Ospedale San Raffaele S.r.l., priority 2023, dated 2024).

What was measured:
[1] = system: human T cells; test: In vitro expansion of activated human T cells by IL-7/IL15; format: cell-based; settings: human T cells expanded by IL-7/IL15 with PFM037 (5 and 10 µM)
[2] = system: LXR target genes ABCA1, SREBP1c, FASN and SCD1; test: Quantitative Real-Time-PCR of LXR target genes in PMA-differentiated U937 cells; format: cell-based, human; settings: U937 differentiated with PMA 72 hours; PFM037 50, 25 and 10 µM, 16 hours
Experimental: Reporter assay for nuclear receptor transcriptional activity. Human embryonic Kidney 293 cells (American Type Culture Collection) were cultured in Dulbecco's Modified Eagle's medium containing 10% of fetal bovine serum at 37°C in humidified atmosphere of 5% CO2. HEK293 cells (4×10^4 cells per well) were transiently transfected in 48 well plate with the reporter plasmids pMH100X4-TK-luc (100 ng/300µl), Renilla (22 ng/300µl) together with 100 ng/300µl of pCMX-Gal4-LXRα or pCMX-Gal4-LXRβ plasmids using X-tremeGENE 9 DNA Transfection Reagent (Roche). Six hours after transfection, the cells were treated with the appropriate compound for 24 hours. Luciferase activities were analyzed by luciferase Dual Reporter Assay Systems (Promega) according to the manufacturer's protocol. GAL4-LXRs, and TK-MHC100-luc plasmids were described in^7. For mammalian two-hybrid assays the human liver cell line Hhu7 (American Type Culture Collection) was transiently transfected with the reporter plasmids p5xUAS-tk-Luc (100 ng/300µl) together with pGAL4-RAP250-Del4 (133 ng/300µl), described in^39, and either of pVP16-LXRα-LBD or pVP16-LXRβ-LBD plasmids (133 ng/300µl), described in^40, using the jetPrime transfection reagent (Polyplus). Six hours after transfection, the cells were treated with the appropriate compound for 40 hours. Luciferase activity was analyzed as described above and protein content spectrophotometrically using Coomassie Plus Protein assay reagent (Thermo Scientific). Quantitative Real-Time-PCR. U937 cell line was differentiated in foam macrophages with phorbol 12-myristate 13-acetate (PMA) 10 ng/ml (Sigma) for 72 hours at 37°C in RPMI 10% FBS. At day 3 T0901317 (10 µM) or different amount of PFM037 (50, 25 and 10 µM) were added for 16 hours. Total RNA was purified by TRIZOL (Invitrogen). Reverse transcription was performed by MLV-reverse transcriptase (Promega). QPCR was performed using SYBR Green Master Mix (Applied Biosystems) and real-time PCR (Viia 7 Real Time PCR System, Applied Biosystems). PCR reactions were done in triplicate. The comparative Ct method was used to quantify transcripts that were normalized for human GAPDH. The following primer pairs were used: • GAPDH-F 5'-ACATCATCCCTGCCTCTACTG-3' (SEQ ID No. 1); • GAPDH-R 5'-ACCACCTGGTGCTCAGTGTA-3'(SEQ ID No. 2); • ABCA1-F 5'-CCA GGC CAG TAC GGA ATT C-3' (SEQ ID No. 3); • ABCA1-R 5'-CCT CGC CAA ACC AGT AGG A-3' (SEQ ID No. 4); • SREBP-1c-F 5'-GGC GGG CGC AGA TC-3' (SEQ ID No. 5); • SREBP-1c-R 5'-TTGTTGATAAGCTGAAGCATGTCT-3' (SEQ ID No. 6); • FAS F 5'-ACA GCG GGG AAT GGG TAC T-3'(SEQ ID No. 7); • FAS R 5'-GACTGGTACAACGAGCGGAT-3' (SEQ ID No. 8); • SCD1-F 5'-TTCAGAAACACATGCTGATCCTCATAATTC-3' (SEQ ID No. 9); • SCD1-R 5'-ATTAAGCACCACAGCATATCGCAAGAAAGT-3'(SEQ ID No. 10)

[3] = system: melanoma B16F1-OVA; test: Treatment of B16F1-OVA-bearing mice; format: in vivo
Text: Tumor challenge experiments.

[4] = system: B16F1 melanoma expressing OVA; test: Antitumor activity of expanded OT-I T cells in mice bearing B16F1 melanoma expressing OVA; format: in vivo; settings: 7-day established tumors; vs OT-I expanded with IL-2 or IL-7/IL15 without PFM037
Experimental: To evaluate whether PFM037 induces functional and phenotypic changes of in vitro activated OT-T cells, OT-I T cells were activated in the presence of anti-CD3/CD28 coated beads and IL-2. Forty-eight hours later the cells were differentiated and expanded by IL-7/IL15 (5ng/ml both cytokines) with or without PFM037. Ten, 12 and 15 days later, FACS analysis was performed to evaluate their differentiation status. […] T cells expanded by IL7 and II,15 in the presence of PFM037 also expressed at higher levels the sternness markers Sca1, Tcf1 and CXCR3. […] First, OT-I T cells expanded with IL-2 (effectors) or IL-7/ILIS with or without PFM037 (memory T cells) were injected in mice bearing 7-day established B16F1 melanoma expressing OVA. […] Then, mice bearing MC-38-OVA-liver metastases were treated with vehicle, or OT-I T cells expanded with IL-2 (effectors), or IL-7/IL15 with or without PFM037. Tumor-bearing mice injected with vehicle were all dead 40 days after tumor injection. Twenty percent of tumor-bearing mice treated with OT-I T cells expanded with IL-2 were alive at 60 days, whereas 50% and 80% of tumor-bearing mice treated with IL-7/IL15 with or without PFM037, respectively, were alive at 60 days (Fig. 20). […]

[5] = system: LLC tumors; test: NMR lipidomic profiling of LLC tumors; settings: PFM037-treated vs vehicle-treated LLC tumors
Experimental: Extraction of the lipidic and polar fractions from tumor tissues. […] They were resuspended in 170 µL of H2O and 700 µL of methanol and sonicated for 60 sec. Then, 350 µL of chloroform were added and mixed the samples on an orbital shaker in ice for 10 minutes. After that, 350 µL of H2O/chloroform (1:1, v/v) were added to each suspension and centrifuged at 4000 rpm for 10 minutes at 4°C. Thereafter, the aqueous (polar) and lipidic (non-polar) phases were collected separately, transferred to a glass vial and evaporated.
^1H NMR spectra acquisition and data analysis. All the lipidic and polar samples were analyzed using Nuclear Magnetic Resonance (NMR). The lipidic fractions were dissolved in 700 µL of deuterated chloroform (CDCl3) and 0.03 volume percentage of tetramethylsilane (TMS) and inserted in NMR tubes whereas the polar fractions were dissolved in 630 µL of PBS-D2O with the pH adjusted to 7.20, and 70 µL of trimethylsilylpropanoic acid (TSP) (1% in D2O). TMS and TSP were used as the internal standards. […] All ^1H NMR spectra were manually phased and baseline-corrected and referenced to the CH3 resonance of TSP or TMS at 0 ppm. The spectral 0.50-8.60 ppm region of ^1H-NMR spectra was integrated in buckets of 0.04 ppm by AMIX package (Bruker, Biospin, Germany). […]

[6] = system: IL-1β release; test: IL-1β release; settings: at early times after PFM037 treatment
[7] = system: MC38-GFP colon cancer cells; test: Liver metastasis model, intramesenteric injection of MC38-GFP cells; settings: 400 µg, 3 days/week for 2 weeks; 21 days after tumor challenge; vs vehicle
Experimental: Macroscopic liver tumor quantification and Immunohistochemistry. At time of autopsy, visible macroscopic tumors were counted, and each liver macroscopically photographed. Livers were then perfused with PBS, harvested and different pieces were sampled, fixed in zinc-formalin and embedded in paraffin for hematoxylin/eosin or immunohistochemical analysis as described^62. Immunohistochemical staining was performed using a Bond RX Automated Immunohistochemistry system (Leica Microsystems GmbH, Wetzlar, Germany) on 3-µm-thick sections. First, tissues were deparaffinized and pre-treated with the Epitope Retrieval Solution [ER1 Citrate Buffer for GFP (dilution 1:500, GFP Polyclonal Antibody, Thermo Fisher Scientific, Cat# A11122, RRID:AB_221569). After washing steps, peroxidase blocking was carried out for 10 min using the Bond Polymer Refine Detection Kit DS9800 (Leica Microsystems GmbH). Then, tissues were washed and incubated for 1h RT with the primary antibody diluted in IHC Antibody Diluent (Novocastra, Leica RE7133). Subsequently, tissues were incubated with polymer-HRP (Biocare Medical, RT517H), developed with DAB-Chromogen for 10 minutes and counterstained with Hematoxilin for 5 minutes. For image acquisition and analysis eSlide Manager (Aperio Leica Biosystems) was used. All images were acquired using the Aperio AT2 system (Leica Biosystems). […]

[8] = system: LLC tumor cells; test: In vitro growth of LLC tumor cells; format: cell-based, mouse; settings: compared with vehicle

SMILES: CC(C)CC[C@H](O)[C@@H](C)[C@H]1CC[C@H]2[C@@H]3CC=C4C[C@@H](OS(=O)(=O)[O-])CC[C@]4(C)[C@H]3CC[C@]12C.[Na+] [PFM037, 22(S)-Hydroxycholesterol-3-sulfate sodium salt]
- markers associated to memory/stem cell memory T cells [1]: higher levels
- ABCA1 transcripts [2]: no activation
- FASN mRNA expression [2]: inhibition
- SCD1 mRNA expression [2]: inhibition
- SREBP-1c mRNA expression [2]: inhibition
- antitumor activity, 400 µg compared with 300 µg [3]: much stronger
- tumor growth ([3]; 400 µg 5 days/week): delayed the growth
- tumor growth control by OT-I T cells expanded with PFM037 [4]: significantly better
- proton signals of ω-3 fatty acid docosahexaenoic acid and its derivatives [5]: lower levels
- proton signals of ω-6 fatty acid arachidonic acid and its derivatives [5]: enriched
- IL-1β release [6]: no difference
- tumor area [7]: reduced
- tumor nodules (macroscopic liver tumor lesions) [7]: much less
- in vitro growth of LLC tumor cells [8]: grew in a similar manner
